The values that follow come from patent publication EP4711361A1, “NITROGEN-CONTAINING HETEROCYCLIC COMPOUND AND USE THEREOF” (Jiangsu Deyuan Pharmaceutical Co.,Ltd., priority 2023, dated 2024).

For one series, the target named is T1, human CYP11B2 (Homo sapiens, UniProt P19099).
T1 construct: expressed in transfected cells; host or cells: human renal leiomyoma G402 cells (monoclonal)
T1 sequence (P19099 25-503): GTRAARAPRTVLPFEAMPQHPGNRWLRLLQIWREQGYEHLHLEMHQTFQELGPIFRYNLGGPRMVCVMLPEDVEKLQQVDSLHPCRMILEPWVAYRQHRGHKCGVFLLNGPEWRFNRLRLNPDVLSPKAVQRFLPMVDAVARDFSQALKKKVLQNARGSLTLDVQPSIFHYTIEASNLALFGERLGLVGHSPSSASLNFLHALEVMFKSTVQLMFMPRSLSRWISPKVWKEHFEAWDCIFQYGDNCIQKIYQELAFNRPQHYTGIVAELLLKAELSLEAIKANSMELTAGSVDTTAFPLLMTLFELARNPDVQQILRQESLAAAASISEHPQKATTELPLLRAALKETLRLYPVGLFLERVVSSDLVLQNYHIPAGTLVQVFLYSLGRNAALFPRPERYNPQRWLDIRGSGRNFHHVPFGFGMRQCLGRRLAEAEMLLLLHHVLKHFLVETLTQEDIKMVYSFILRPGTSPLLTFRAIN
The series is described as follows: In vitro activity assay of monoclonal cells overexpressing human CYP11B2. The series is classed as cell-based. The following applies: G402 cells overexpressing human CYP11B2; 1 µM 11-deoxycorticosterone, 16 hours; aldosterone by LC-MS/MS. As for the experimental part: The human renal leiomyoma G402 cell line overexpressing human CYP11B2 was selected to serve as a compound activity screening system. Table 1: Cell and reagent information
2) Compound details: The test compound was prepared as a 10 µM working concentration using DMSO. 3) Experimental procedure
Day 1: Cells were digested, and human renal leiomyoma G402 cells overexpressing human CYP11B2 were resuspended to 1×10^5 cells/mL, with 100 µL seeded into a 96-well plate.
(§1) Day 3: The cell supernatant was collected and added to 200 µL of a methanol solution containing internal standards (internal standards: 35 ng/mL ketoprofen or 7.5 ng/mL carbamazepine or 5 ng/mL diphenhydramine or 10 ng/mL tolbutamide). The mixture was vortexed and centrifuged (4000×g, 4°C, 5 minutes). Then, 100 µL of the supernatant was taken and mixed with 100 µL of pure water.
Ratio = Aldosterone peak area/Internal standard peak area [formula] Control activity% = (Ratiotestcompound/RatioDMSO) × 100% [formula]
(§2) "Ratio test compound" represents the Ratio values at different concentrations of the test compound.
(§3) "Ratio DMSO" represents the Ratio value without the addition of the test compound. • X = Log (compound concentration) • Y = Control activity%
The IC50 of the test compound was determined by fitting to a nonlinear regression equation using XLfit 5.5.0. Table 3: Results for in vitro activity assay of monoclonal cells overexpressing human CYP11B2

The subject of another series is MDR1-MDCKII cells. The series is described as follows: Permeability test (MDR1-MDCKII monolayer, bidirectional transport). The series is classed as in vitro ADME. The following applies: 2 µM; for Efflux ratio (ER): ER = Papp (BA)/ Papp (AB), 150 min; for Apparent permeability coefficient (Papp (AB), 10^-6 cm/s): pH 7.40, 2.5 hours, A to B. Here is the method: (§4) Experimental objective: The permeability and efflux ratio of the compound of the present disclosure were determined using the MDR1-MDCKII monolayer cell model to assess its membrane permeability and potential for P-gp-mediated efflux transport.
(§5) Experimental protocol: MDR1-MDCKII cells (obtained from the Netherlands Cancer Institute) were seeded in 96-well plates (obtained from Corning) at a cell density of 3.33 × 10^5 cells/mL and cultured for 4 to 7 days to form confluent cell monolayers. Hank's balanced salt solution containing 10 mM HEPES (pH 7.40) was used as the transport buffer. The test compound was evaluated for bidirectional transport at a concentration of 2 µM, with the DMSO concentration in the incubation system maintained below 1%. After adding the samples, the cell plate was incubated at 37±1°C, 5% CO2, and saturated humidity for 2.5 hours. All samples were quantitatively analyzed using the LC-MS/MS method. The apparent permeability coefficient (Papp, cm/s) and efflux ratio (ER) were calculated using the following formula. Apparent permeability coefficient (Papp, cm/s) was calculated using the following formula: Papp = (dCr/dt) x Vr / (A x C0). Herein, dCr/dt represents the cumulative concentration of the compound at the receiving end per unit time (µM/s); Vr is the volume of the solution at the receiving end (with solution volumes at the apical and basolateral ends being 0.075 mL and 0.250 mL, respectively); A is the relative surface area of the cell monolayer (0.143 cm^2); C0 is the initial concentration of the test substance at the dosing end (µM) or the peak area ratio of the reference substance. The efflux ratio was calculated using the following formula: ER = Papp (BA)/ Papp (AB). Table 7: Permeability test results of compounds

A further series addresses T2, human CYP11B1 (Homo sapiens, UniProt P15538).
T2 construct: expressed in transfected cells; host or cells: human renal leiomyoma G402 cells (monoclonal)
T2 sequence (P15538 25-503): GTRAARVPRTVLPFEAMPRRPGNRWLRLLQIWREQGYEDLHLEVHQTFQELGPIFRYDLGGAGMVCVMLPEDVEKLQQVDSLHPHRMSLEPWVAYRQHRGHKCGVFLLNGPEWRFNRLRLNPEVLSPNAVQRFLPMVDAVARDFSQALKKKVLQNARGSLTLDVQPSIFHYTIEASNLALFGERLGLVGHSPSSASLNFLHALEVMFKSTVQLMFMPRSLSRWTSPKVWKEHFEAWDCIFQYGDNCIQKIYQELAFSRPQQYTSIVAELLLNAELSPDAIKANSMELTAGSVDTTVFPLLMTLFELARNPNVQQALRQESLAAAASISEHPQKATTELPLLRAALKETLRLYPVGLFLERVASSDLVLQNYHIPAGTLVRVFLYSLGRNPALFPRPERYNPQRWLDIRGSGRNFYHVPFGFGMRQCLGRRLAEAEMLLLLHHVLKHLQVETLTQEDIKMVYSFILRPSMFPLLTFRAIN
The experiment in a line: In vitro activity assay of monoclonal cells overexpressing human CYP11B1. The following applies: G402 cells overexpressing human CYP11B1; 1 µM 11-deoxycortisol, 16 hours; cortisol by LC-MS/MS. The series is classed as cell-based. As for the experimental part:
The human renal leiomyoma G402 cell line overexpressing human CYP11B1 was selected to serve as a compound selectivity screening system.
Day 1: Cells were digested, and human renal leiomyoma G402 cells overexpressing CYP11B1 were resuspended to 1×10^5 cells/mL, with 100 µL seeded into a 96-well plate.
as §1
Ratio = Cortisol peak area/Internal standard peak area [formula] Control activity% = (Ratiotestcompound/RatioDMSO) × 100% [formula]
as §2, §3
The IC50 of the test compound was determined by fitting to a nonlinear regression equation using XLfit 5.5.0. Table 4: Results for in vitro activity assay of monoclonal cells overexpressing human CYP11B1

Series [1] is described as follows: in vitro. The following applies: human, microsomes.
Series [2] in a line: in vitro. The following applies: human, plasma.
Series [3] can be described thus: Permeability test (MDR1-MDCKII monolayer, bidirectional transport). Format: in vitro ADME. The following applies: dog; for efflux ratio at 2.5 h, 2 µM: MDCK-MDR1, pH 7.4, ER = Papp (BA)/ Papp (AB); for Papp A→B at 2.5 h, 2 µM: MDCK-MDR1, pH 7.4, pH 7.40, 2.5 hours, A to B, read-out: Apparent permeability coefficient (Papp (AB), 10^-6 cm/s). Here is the method: as §4, §5

Series [4] in a line: in vitro. The following applies: cynomolgus monkey, plasma.
Series [5] can be described thus: in vitro. The following applies: rat, plasma.
Series [6] has as its system patients with resistant hypertension. The following applies: cited from earlier work.
[7] abbreviates: 2 mg dose, patients with resistant hypertension.

pIC50: −log10 of the molar value.

As to `CCC(=NOC)NC1CCCc2c(-c3ccc4c(c3)CCC(=O)N4C)cncc21` (single isomer, unassigned) [Compound 005], the pIC50 against human CYP11B2 is 7.71. In the series with MDR1-MDCKII cells, the “Efflux ratio (ER)” value is 0.70 and the “Apparent permeability coefficient (Papp (AB), 10^-6 cm/s)” value (from here on “Apparent permeability coefficient”) is listed as 23.1 10^-6 cm/s. Moreover, the pIC50 at human CYP11B1 is 5.85.
In the case of `CCC(=O)NC1CCCc2c(-c3ccc4c(c3)OCC(=O)N4C)cncc21` (single isomer, unassigned) [Compound 010], the pIC50 is 7.15 against human CYP11B2 and 5.16 against human CYP11B1.
Take `CCC(=O)NC1CCCc2c(-c3ccc4c(c3)OCC(=O)N4C)cncc21` (single isomer, unassigned) [Compound 011]: on human CYP11B2, the negative logarithm of the IC50 (pIC50) is 7.22. Besides, in the series on MDR1-MDCKII cells, the “Efflux ratio (ER)” value is reported as 0.89 and the “Apparent permeability coefficient” value was 24.3 10^-6 cm/s. Further, on human CYP11B1, the negative logarithm of the IC50 (pIC50) is 5.16.
In turn, `Cn1c(=O)ccc2cc(-c3cncc4c3CCC[C@H]4NC(=O)c3ncccc3Cl)ccc21` (single isomer, unassigned) [Compound 014] had a pIC50 on human CYP11B2 of 7.69.
`Cc1noc(C)c1C(=O)NC1CCCc2c(-c3ccc4c(ccc(=O)n4C)c3)cncc21` (single isomer, unassigned) [Compound 015] gave a pIC50 against human CYP11B2 of 7.50.
For the molecule `Cc1noc(C)c1C(=O)NC1CCCc2c(-c3cc4ccc(=O)n(C)c4cc3F)cncc21` (single isomer, unassigned) [Compound 020], in “in vitro [1]”, the CLint scaled at 1 µM worked out at 12.9 mL/min/kg. Further, the figures for the pIC50 against human CYP11B2 and at human CYP11B1 were 7.59 and 5.95, respectively. In addition, the fraction unbound at 4 h, 2 µM in the series “in vitro [2]” is 0.144; in “in vitro [4]”, 0.097; in “in vitro [5]”, 0.083. In [3], the efflux ratio at 2.5 h, 2 µM worked out at 2.47. Further, the Papp A→B at 2.5 h, 2 µM in [3] amounted to 14 ×10⁻⁶ cm/s.
In turn, `CCC(=O)NC1CCCc2c(-c3ccc4c(c3)C3CC3C(=O)N4C)cncc21` (single isomer, unassigned) [Compound 025] showed a pIC50 on human CYP11B2 of 7.18.
For the molecule `CCC(=O)NC1CCN(C2CCCc3c(-c4ccc5c(ccc(=O)n5C)c4)cncc32)CC1` (single isomer, unassigned) [Compound 030], the pIC50 was 7.31 at human CYP11B2 and 5.66 on human CYP11B1.
As to `CCC(=O)NC1CCCc2c(-c3cc(F)c4c(c3)OCC(=O)N4C)cncc21` (single isomer, unassigned) [Compound 031], on human CYP11B2, the pIC50 is 7.65. In the series with MDR1-MDCKII cells, the “Efflux ratio (ER)” value was 0.89 and the “Apparent permeability coefficient” value is 20.0 10^-6 cm/s. This molecule had a pIC50 against human CYP11B1 of 5.32.
The like results for `CCC(=O)NC1CCCc2c(-c3cc4c(cc3F)N(C)C(=O)CO4)cncc21` (single isomer, unassigned) [Compound 032] were, in that order, 7.52, 0.86, 22.6 10^-6 cm/s and 5.25.
As for `CCC(=O)NC1CCCc2c(-c3nc4ccc(=O)n(C)c4s3)cncc21` (single isomer, unassigned) [Compound 041], the pIC50 at human CYP11B2 was 7.37; against human CYP11B1, 5.17.
On human CYP11B2, `CCC(=O)NC1CCCc2c(-c3ccc4c(ccc(=O)n4C)c3Cl)cncc21` (single isomer, unassigned) [Compound 042] showed a pIC50 of 7.39.
Take `CCC(=O)NC1CCOc2c(-c3ccc4c(ccc(=O)n4C)c3)cncc21` (single isomer, unassigned) [Compound 044]: the results for the negative logarithm of the IC50 (pIC50) at human CYP11B2 and against human CYP11B1 were 7.48 and 4.71, respectively. For the same molecule, the results for the fraction unbound at 4 h, 2 µM in the series “in vitro [2]”, in the series “in vitro [4]” and in “in vitro [5]” were 0.295, 0.336 and 0.024, respectively. Besides, the efflux ratio at 2.5 h, 2 µM in series [3] was found to be 2.46. The Papp A→B at 2.5 h, 2 µM in series [3] came out at 11 ×10⁻⁶ cm/s.
On to `CCC(=O)NC1CCOc2c(-c3cc4ccc(=O)n(C)c4s3)cncc21` (single isomer, unassigned) [Compound 045], for which, at human CYP11B2, the pIC50 was 7.37. In addition, in the series with MDR1-MDCKII cells, the “Efflux ratio (ER)” value stood at 1.30 and the “Apparent permeability coefficient” value is reported as 16.7 10^-6 cm/s. The same molecule had a pIC50 against human CYP11B1 of 4.46.
The like results for `CCC(=O)NC1CCOc2c(-c3cc4c(s3)N(C)C(=O)CC4)cncc21` (single isomer, unassigned) [Compound 046] were, in that order, 7.88, 1.17, 18.0 10^-6 cm/s and 5.80.
As to `CCC(=O)NC1CCc2c(-c3ccc4c(ccc(=O)n4C)c3)cncc21` (single isomer, unassigned) [Compound 048], the results for the pIC50 against human CYP11B2 and against human CYP11B1 were 8.15 and 5.60, respectively.
Regarding `CCC(=O)N[C@@H]1CCCc2c(-c3ccc4c(c3)CCC(=O)N4C)cncc21` [Baxdrostat], in [6] (setting [7]), the “office systolic and diastolic blood pressure” value is listed as “demonstrated efficacy”; the safety and tolerability entry was “favorable safety and tolerability profiles”. Further, in series [6] (clinical studies), the aldosterone secretion levels entry was “dose-dependent reduction” and the blood pressure entry is “dose-dependent reduction”. Also, in series [6] (phase 2 trials), the blood pressure reduction entry is given as “significant blood pressure reduction”, the cortisol levels entry is “no impact on cortisol levels”, the elevated blood potassium entry is listed as “rare occurrence of elevated blood potassium” and the steroid precursor accumulation result was “absence of steroid precursor accumulation”.
In the case of `CCS(=O)(=O)N1CC(Oc2cncc(-c3ccc4c(c3)OCC(=O)N4C)c2)C1` [Compound 016], at human CYP11B2, the pIC50 was 7.20.

One may read the pIC50 as −log10 of the IC50, conventionally taken in molar units. Lower therefore signals a high IC50. What is called CLint scaled is the capacity of the preparation to metabolise the compound, expressed as a volume cleared per time. A low value points to greater metabolic stability. Broadly, the fraction unbound is free concentration divided by total concentration. A word on the efflux ratio: it is the permeability from basolateral to apical divided by that in the opposite direction, in the common usage.
